The supplement of paper PMC10307832

Assays:
Assay in all cases: relative viability (nuclei count vs DMSO), 5 days (fraction); higher = more cells survive
Calu-6 = test system: Calu-6
In short: (§1)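 One day after seeding in 1536-well plates, lung cancer cell lines were dosed by pin tool. Dosing was either single-drug or a fixed anchor-drug dose plus five library-drug doses (not always all listed) in √10 steps. After 5 days, nuclei were stained in one fix-and-stain step and counted on 4× images, and relative viability is the nuclei count of treated wells over that of vehicle wells, given as the median of duplicate plates.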

NCI-H1299 = test system: NCI-H1299
In short: as §1

A549 = test system: A549
In short: as §1

NCI-H1703 = test system: NCI-H1703
In short: as §1

IA-LM = test system: IA-LM
In short: as §1

NCI-H2126 = test system: NCI-H2126
In short: as §1

ABC-1 = test system: ABC-1
In short: as §1

EBC-1 = test system: EBC-1
In short: as §1

EKVX = test system: EKVX
In short: as §1

For `O=C(O)c1ccc(-c2c[nH]c3ncc(-c4ccccc4)cc23)cc1C1CCCC1` + C[C@]1(O)C[C@@H](c2nc(-c3ccc4ccc(-c5ccccc5)nc4c3)c3c(N)nccn32)C1 [Linsitinib] (partner 1 µM), the relative viability (Calu-6; first compound 0.04 µM) was 0.86, the relative viability (Calu-6; first compound 0.1265 µM) was 1.17 and the relative viability (Calu-6; first compound 0.4 µM) was 0.892. The relative viability (Calu-6; first compound 1.265 µM) was 0.781, the relative viability (NCI-H1299; first compound 0.04 µM) was 0.933 and the relative viability (NCI-H1299; first compound 0.1265 µM) was 1.02. For the same compound, the relative viability (NCI-H1299; first compound 0.4 µM) was 1.04, the relative viability (NCI-H1299; first compound 1.265 µM) was 0.918 and the relative viability (A549; first compound 0.04 µM) was 0.622. For the same compound, the relative viability (A549; first compound 0.1265 µM) was 0.719, the relative viability (A549; first compound 0.4 µM) was 0.717 and the relative viability (A549; first compound 1.265 µM) was 0.505. It also gave a relative viability (NCI-H1703; first compound 0.04 µM) of 0.647, a relative viability (NCI-H1703; first compound 0.1265 µM) of 1.06 and a relative viability (NCI-H1703; first compound 0.4 µM) of 1.06. It also gave a relative viability (NCI-H1703; first compound 1.265 µM) of 0.898, a relative viability (IA-LM; first compound 0.04 µM) of 0.558 and a relative viability (IA-LM; first compound 0.1265 µM) of 0.685. The relative viability (IA-LM; first compound 0.4 µM) was 0.712, the relative viability (IA-LM; first compound 1.265 µM) was 0.513 and the relative viability (NCI-H2126; first compound 0.04 µM) was 0.723. For the same compound, the relative viability (NCI-H2126; first compound 0.1265 µM) was 0.732, the relative viability (NCI-H2126; first compound 0.4 µM) was 0.7 and the relative viability (NCI-H2126; first compound 1.265 µM) was 0.623. For the same compound, the relative viability (ABC-1; first compound 0.04 µM) was 0.753, the relative viability (ABC-1; first compound 0.1265 µM) was 0.808 and the relative viability (ABC-1; first compound 0.4 µM) was 0.962. For the same compound, the relative viability (ABC-1; first compound 1.265 µM) was 0.716, the relative viability (EBC-1; first compound 0.04 µM) was 0.862 and the relative viability (EBC-1; first compound 0.1265 µM) was 0.903. For the same compound, the relative viability (EBC-1; first compound 0.4 µM) was 0.956, the relative viability (EBC-1; first compound 1.265 µM) was 0.697 and the relative viability (EKVX; first compound 0.04 µM) was 0.984. The relative viability (EKVX; first compound 0.1265 µM) was 1.18, the relative viability (EKVX; first compound 0.4 µM) was 1.11 and the relative viability (EKVX; first compound 1.265 µM) was 0.713.

`O=C(O)c1ccc(-c2c[nH]c3ncc(-c4ccccc4)cc23)cc1C1CCCC1` + Cc1nc(NC(=O)N2CCC[C@H]2C(N)=O)sc1-c1ccnc(C(C)(C)C(F)(F)F)c1 [Alpelisib] (partner 2 µM) was tested, and the relative viability (Calu-6; first compound 0.04 µM) was 1.04, the relative viability (Calu-6; first compound 0.1265 µM) was 0.978 and the relative viability (Calu-6; first compound 0.4 µM) was 0.825. For the same compound, the relative viability (Calu-6; first compound 1.265 µM) was 0.682, the relative viability (NCI-H1299; first compound 0.04 µM) was 1 and the relative viability (NCI-H1299; first compound 0.1265 µM) was 1.09. It also gave a relative viability (NCI-H1299; first compound 0.4 µM) of 1.05, a relative viability (NCI-H1299; first compound 1.265 µM) of 0.957 and a relative viability (A549; first compound 0.04 µM) of 0.728. It also gave a relative viability (A549; first compound 0.1265 µM) of 0.787, a relative viability (A549; first compound 0.4 µM) of 0.869 and a relative viability (A549; first compound 1.265 µM) of 0.499. It also gave a relative viability (NCI-H1703; first compound 0.1265 µM) of 0.405, a relative viability (NCI-H1703; first compound 0.4 µM) of 0.395 and a relative viability (NCI-H1703; first compound 1.265 µM) of 0.332. For the same compound, the relative viability (IA-LM; first compound 0.04 µM) was 0.77, the relative viability (IA-LM; first compound 0.1265 µM) was 0.913 and the relative viability (IA-LM; first compound 0.4 µM) was 0.713. It also gave a relative viability (IA-LM; first compound 1.265 µM) of 0.737, a relative viability (NCI-H2126; first compound 0.04 µM) of 0.787 and a relative viability (NCI-H2126; first compound 0.1265 µM) of 0.76. For the same compound, the relative viability (NCI-H2126; first compound 0.4 µM) was 0.696, the relative viability (NCI-H2126; first compound 1.265 µM) was 0.629 and the relative viability (ABC-1; first compound 0.04 µM) was 0.831. The relative viability (ABC-1; first compound 0.1265 µM) was 1.09, the relative viability (ABC-1; first compound 0.4 µM) was 1.24 and the relative viability (ABC-1; first compound 1.265 µM) was 1.2. For the same compound, the relative viability (EBC-1; first compound 0.04 µM) was 0.848, the relative viability (EBC-1; first compound 0.1265 µM) was 0.719 and the relative viability (EBC-1; first compound 0.4 µM) was 0.939. The relative viability (EBC-1; first compound 1.265 µM) was 0.48, the relative viability (EKVX; first compound 0.04 µM) was 0.984 and the relative viability (EKVX; first compound 0.1265 µM) was 0.966. The relative viability (EKVX; first compound 0.4 µM) was 0.911 and the relative viability (EKVX; first compound 1.265 µM) was 0.812.

`NC(=O)Nc1cc(-c2cccc(F)c2)sc1C(=O)N[C@H]1CCCNC1` [AZD7762] + CS(=O)(=O)CCNCc1ccc(-c2ccc3ncnc(Nc4ccc(OCc5cccc(F)c5)c(Cl)c4)c3c2)o1 [Lapatinib] (partner 2 µM) showed a relative viability (Calu-6; first compound 0.01 µM) of 1.11, a relative viability (Calu-6; first compound 0.03162 µM) of 1.02 and a relative viability (Calu-6; first compound 0.1 µM) of 0.96. It also gave a relative viability (Calu-6; first compound 0.3162 µM) of 0.2, a relative viability (Calu-6; first compound 1 µM) of 0.147 and a relative viability (NCI-H1299; first compound 0.01 µM) of 0.955. It also gave a relative viability (NCI-H1299; first compound 0.03162 µM) of 0.963, a relative viability (NCI-H1299; first compound 0.1 µM) of 0.968 and a relative viability (NCI-H1299; first compound 0.3162 µM) of 0.811. For the same compound, the relative viability (NCI-H1299; first compound 1 µM) was 0.289, the relative viability (A549; first compound 0.01 µM) was 1.12 and the relative viability (A549; first compound 0.03162 µM) was 1.02. It also gave a relative viability (A549; first compound 0.1 µM) of 1.05, a relative viability (A549; first compound 0.3162 µM) of 0.823 and a relative viability (A549; first compound 1 µM) of 0.198. The relative viability (NCI-H1703; first compound 0.01 µM) was 0.627, the relative viability (NCI-H1703; first compound 0.03162 µM) was 0.31 and the relative viability (NCI-H1703; first compound 0.1 µM) was 0.238. It also gave a relative viability (NCI-H1703; first compound 0.3162 µM) of 0.176, a relative viability (NCI-H1703; first compound 1 µM) of 0.156 and a relative viability (IA-LM; first compound 0.01 µM) of 1.13. The relative viability (IA-LM; first compound 0.03162 µM) was 1.11, the relative viability (IA-LM; first compound 0.1 µM) was 1.1 and the relative viability (IA-LM; first compound 0.3162 µM) was 0.798. The relative viability (IA-LM; first compound 1 µM) was 0.16, the relative viability (NCI-H2126; first compound 0.01 µM) was 0.774 and the relative viability (NCI-H2126; first compound 0.03162 µM) was 0.82. For the same compound, the relative viability (NCI-H2126; first compound 0.1 µM) was 0.834, the relative viability (NCI-H2126; first compound 0.3162 µM) was 0.803 and the relative viability (NCI-H2126; first compound 1 µM) was 0.821. The relative viability (ABC-1; first compound 0.01 µM) was 1.46, the relative viability (ABC-1; first compound 0.03162 µM) was 1.33 and the relative viability (ABC-1; first compound 0.1 µM) was 0.983. For the same compound, the relative viability (ABC-1; first compound 0.3162 µM) was 1.2, the relative viability (ABC-1; first compound 1 µM) was 0.981 and the relative viability (EBC-1; first compound 0.01 µM) was 0.215. The relative viability (EBC-1; first compound 0.03162 µM) was 0.191, the relative viability (EBC-1; first compound 0.1 µM) was 0.234 and the relative viability (EBC-1; first compound 0.3162 µM) was 0.199. For the same compound, the relative viability (EBC-1; first compound 1 µM) was 0.186, the relative viability (EKVX; first compound 0.01 µM) was 0.204 and the relative viability (EKVX; first compound 0.03162 µM) was 0.232. For the same compound, the relative viability (EKVX; first compound 0.1 µM) was 0.206, the relative viability (EKVX; first compound 0.3162 µM) was 0.253 and the relative viability (EKVX; first compound 1 µM) was 0.166.
